# Laboratory results taken from patent US6133266A, “3,4-disubstituted phenylethanolaminotetralincarboxamide derivatives” (Kissei Pharmaceutical Co., Ltd., priority 1996, dated 2000).
# Structures can show the parent of a compound that is named as a salt.
# Legend:
# β1 -adrenergic receptor = test: Action of drugs on the atrial contractions of isolated atria (isolated rat atrium); type: cell-based; settings: isolated atria of SD male rats, Magnus method, 37° C.
# Experimental: Thus, the compounds of the present invention have markedly weak β1 -adrenergic receptor stimulating effect in comparison with the aforementioned β2 -adrenergic receptor stimulating effect.
# Action of drugs on the atrial contractions of isolated atria The atria of SD male rats (350 to 400 g in body weight) were isolated and the experiment was conducted according to the Magnus method. The preparations were mounted with a tension of 1 g in Krebs-Henseleit solution maintained at 37° C. and gassed with a mixture of 95% of oxygen and 5% of carbon dioxide. The atrial contraction was induced isometrically via a pressure transducer and recorded on a rectigram. After addition of the drug, its efficacy was evaluated by calculating EC20 value which is the drug concentration which increases 20 beats per minute of heart rate.
# β2 -adrenergic receptor = biological target: T1, β2 -adrenergic receptor (Rattus norvegicus, UniProt P10608); test: Action of drugs on the spontaneous contractions of isolated myometria (isolated rat pregnant uterus); type: cell-based; settings: isolated pregnant SD rat uterus (pregnancy day 21), Magnus method, 37° C.; read-out: EC50, activity to relax 50% of the spontaneous contractions of rat myometrium
# T1 construct: longitudinal uterine muscle strips (about 15 mm in length and about 5 mm in width); from tissue; host or cells: longitudinal uterine muscle strips of pregnant SD rat (day 21)
# T1 sequence (P10608 whole entry): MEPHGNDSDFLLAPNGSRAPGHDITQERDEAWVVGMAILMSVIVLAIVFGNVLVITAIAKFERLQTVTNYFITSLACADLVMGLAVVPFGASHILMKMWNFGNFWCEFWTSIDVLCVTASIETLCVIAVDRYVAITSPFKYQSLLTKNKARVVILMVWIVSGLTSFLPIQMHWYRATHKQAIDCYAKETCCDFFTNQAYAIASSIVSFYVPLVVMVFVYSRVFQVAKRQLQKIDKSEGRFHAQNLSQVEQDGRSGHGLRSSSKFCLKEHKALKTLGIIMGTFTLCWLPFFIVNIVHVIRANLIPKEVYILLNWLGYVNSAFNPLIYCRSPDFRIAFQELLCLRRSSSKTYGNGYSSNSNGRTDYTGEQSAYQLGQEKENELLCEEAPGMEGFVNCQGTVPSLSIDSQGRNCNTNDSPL
# Experimental: Thus, the compounds of the present invention have markedly potent β2 -adrenergic receptor stimulating effect and therefore are remarkably useful as β2 -adrenergic receptor stimulating agents.
# Action of drugs on the spontaneous contractions of isolated myometria
# The uterus of a pregnant SD rat (pregnancy day of 21) was isolated and longitudinal uterine muscle strips (about 15 mm in length and about 5 mm in width) free from the basal plate were prepared. The experiment was conducted according to the Magnus method. The preparations were mounted with a tension of 1 g in Locke-Ringer solution maintained at 37° C. and gassed with a mixture of 95% of oxygen and 5% of carbon dioxide. Spontaneous contractions of the myometrium were induced isometrically via a pressure transducer and recorded on a rectigram. The efficacy was evaluated by comparing the total degree of uterine contraction during 5 minutes before the addition of the drug with the total degree of uterine contraction during 5 minutes after the addition of the drug and calculating the 50% inhibitory concentration as EC50.
# male ICR mice = test: Acute toxicity; type: in vivo; settings: 5 male ICR mice, intravenously in saline, 20 mg/kg, during 24 hours after the administration
# Experimental: To 5 male ICR mice of 4 weeks age was administered intravenously 2-[(2S)-2-[[(2R)-2-hydroxy-2-(4-hydroxy-3hydroxymethylphenyl)ethyl]amino]- 1,2,3,4-tetrahydronaphthalen-7-yloxy]-N,N-dimethylacetamide 0.5 sulfate in saline at dose of 20 mg/kg.
smiles,measurement,setting,value
"CN(C)C(=O)COc1ccc2c(c1)C[C@@H](NCC(O)c1ccc(O)c(CO)c1)CC2 (mixture of isomers) [Compound 1, 2-[(2S)-2-[[(2RS)-2-Hydroxy-2-(4-hydroxy-3-hydroxymethylphenyl)ethyl]amino]-1,2,3,4-tetrahydronaphthalen-7yloxy]-N,N-dimethylacetamide]","EC20 value, activity to increase 20 beats per minute of rat heart rate",β1 -adrenergic receptor,2.5×10^-6 mol concentration
same,EC50,β2 -adrenergic receptor,5.3 nM
"CN(C)C(=O)COc1ccc2c(c1)C[C@@H](NC[C@H](O)c1ccc(O)c(CO)c1)CC2 [Compound 19, (-)-2-[(2S)-2-[[(2R)-2-Hydroxy-2-(4-hydroxy-3-hydroxymethylphenyl)ethyl]amino]-1,2,3,4-tetrahydronaphthalen-7-yloxy]-N,N-dimethylacetamide 0.5 sulfate]",death of animals,male ICR mice,No death of animals was observed
"CN(C)C(=O)COc1ccc2c(c1)C[C@@H](NC[C@H](O)c1ccc(O)c(CO)c1)CC2 [Compound 6, (-)-2-[(2S)-2-[[(2R)-2-Hydroxy-2-(4-hydroxy-3-hydroxymethylphenyl)ethyl]amino]-1,2,3,4-tetrahydronaphthalen-7-yloxy]-N,N-dimethylacetamide]","EC20 value, activity to increase 20 beats per minute of rat heart rate",β1 -adrenergic receptor,9.4×10^-7 mol concentration
same,EC50,β2 -adrenergic receptor,2.6 nM
